In US7759399B2, “Pharmaceutical compositions” (priority 2002, dated 2010):

How the values were obtained:
HSF = HSF luciferase reporter assay, HeLa cell clone 13B (human hsp70 promoter); assay type: cell-based; settings: 8 h, HeLa clone 13B, 8 h treatment, serum-free medium, read-out: HSF, AC200 (concentration at which the compound doubled the HSF activity)
Procedure: (§1) Method: HeLa cell clone 13B, stably transfected with a luciferase reporter plasmid controlled by the human hsp70 promoter, and HeLa κB-transformed cells, stably transfected with a luciferase reporter plasmid controlled by a synthetic NF-κB-STM construct, were maintained in DMEM medium supplemented with 10% FBS, L-glutamine (2 mM) and G418 (250 μg/ml) at 37° C. in a 5% CO2 humidified atmosphere.
(§2) Cells were seeded at a density of 4×10^4 cells/well in 96-well plates. After 18-20 h, the medium was removed and cells were treated for 8 h with the test compounds (100 μl) at the appropriate dilutions in serum-free medium. For the NF-κB-dependent reporter gene assay, cells were stimulated with TPA (25 ng/ml) 2 h after exposure to the compounds.
(§3) After incubation, the medium was removed and cells were lysed in 10 μl of lysis buffer. The luciferase activity was determined by adding 100 μl of substrate and measuring the release of light using a Victor 1420 microplate reader (Wallac, Finland).
(§4) The AC200/μM for HSF is the concentration at which the tested compound doubled the HSF activity in this assay. The IC50/μM for NF-κB is the concentration at which the tested compound halved the NF-κB activity in this assay.

NF-κB = assay: NF-κB-dependent luciferase reporter gene assay, HeLa κB-transformed cells, TPA stimulated; assay type: cell-based; settings: Homo sapiens, HeLa, 8 h treatment, TPA 25 ng/ml 2 h after exposure, read-out: NF-κB, IC50 (concentration at which the compound halved the NF-κB activity)
Procedure: as §1, §2, §3
The fragment Kpn I-BamH I from the pGL3 basic vector containing the luciferase gene (PROMEGA) was inserted in the pcDNA3 vector (INVITROGEN) digested with Bgl II-KpnI. (This digestion removes the CMV-promoter from pcDNA3.) The resulting new vector was digested with Kpn I-Hind III and a promoter containing a ‘5xNF-κB binding sites—TATA box’ sequence was inserted upstream of the luciferase gene. This vector has been named STM.
To obtain stable HeLa cell lines expressing the luciferase gene under the control of NF-κB, HeLa cells were transfected (using lipofectamine plus GIBCO) with the STM-Pvu I linearized vector, and selected for 20 days with G418 (800 μg/ml). After selection, the resistant HeLa cell pool was controlled (in quadruplicate samples) for luciferase activity after stimulation with TNFα, IL-1 and TPA.
as §4

uninfected 37RC cells = assay: Toxicity to uninfected cells, determined visually by microscopy (TD100)
Sendai virus = Sendai virus replication in 37RC cells (virus yield by HAU titration); assay type: cell-based; settings: Respirovirus muris, 5 HAU/10^5 cells, virus yield at 24 hours after infection, read-out: ID50 (50% inhibitory dose/concentration), Sendai virus yield
[1] = Alamar Blue cytotoxicity assay; assay type: cell-based; settings: human
Procedure: HeLa cells were plated in 96-well microtiter plates in 100 μl culture medium (4×10^4/well). After 20 hours, the cells were exposed to the test compounds at different dilutions and incubated for the next 8 h at 37° C. in a 5% CO2 humidified atmosphere. After 6 h incubation, the Alamar Blue was added in an amount equal to 10% of the culture volume (10 μl). Two hours after the addition of the Alamar Blue, the fluorescence was measured using a Victor 1420 microplate reader.
The LC50/μM is the concentration at which the tested compound killed half the cells in this assay.

in vitro = assay type: cell-based; settings: 37RC cells, 24 h treatment; read-out: LC50 (50% lethal dose/concentration), Neutral Red
Procedure: Cell viability was determined using the Neutral Red assay. 37RC cells were seeded at density of 6×10^4 cells/well in 24-well plates and incubated for 24 h. Confluent 37RC monolayers were treated with the test compounds at different dilutions for 24 h at 37° C. After incubation, the medium was removed and the cells were incubated with RPMI medium containing 40 μg/ml Neutral Red dye (500 μl/well). After 2 h at 37° C., the monolayers were washed with phosphate-buffered saline (PBS) and then with a solution containing 1% CaCl2 and 0.5% formaldehyde. After washing, a solution containing 1% acetic acid/50% ethanol was added to the monolayers (250 μl/well). After 10 min at room temperature, the absorbance was determined with a microplate reader (Victor 1420, Wallac) at 540 nm.

COC(=O)CCS[C@H]1CC(=O)C[C@@H]1O[Si](C)(C)C(C)(C)C [CTM-88]
EC (2-fold) (HSF): 60 µM | IC50 (NF-κB): 65 µM | TD100 (dose or concentration at which the compound was 100% toxic to uninfected cells) (uninfected 37RC cells): 50 µM | IC50 (Sendai virus): 10 µM | CC50 at 8 h [1]: 477 µM | CC50 at 24 h (in vitro): 45 µM

CC(C)(C)OC(=O)N[C@@H](CS[C@H]1CC(=O)C[C@@H]1O[Si](C)(C)C(C)(C)C)C(=O)O [CTM-145]
TD100 (dose or concentration at which the compound was 100% toxic to uninfected cells) (uninfected 37RC cells): 50 µM | IC50 (Sendai virus): 0.8 µM | CC50 at 8 h [1]: > 800 µM | CC50 at 24 h (in vitro): 14 µM

CC(S[C@H]1CC(=O)C[C@@H]1O[Si](C)(C)C(C)(C)C)C(=O)NCC(=O)O (some centres unmarked) [CTM-110]
EC (2-fold) (HSF): 27 µM | IC50 (NF-κB): > 100 µM | TD100 (dose or concentration at which the compound was 100% toxic to uninfected cells) (uninfected 37RC cells): 50 µM | IC50 (Sendai virus): 1 µM | CC50 at 8 h [1]: > 800 µM | CC50 at 24 h (in vitro): 18 µM

CC(C)(C)[Si](C)(C)OC1C=CC(=O)C1 (centres unmarked) [CTC-8, 4-tert-butyldimethylsilyloxy-cyclopent-2-en-1-one, reference compound]
TD100 (dose or concentration at which the compound was 100% toxic to uninfected cells) (uninfected 37RC cells): 100 µM | IC50 (Sendai virus): 0.5 µM

CC(C)(C)[Si](C)(C)O[C@H]1CC(=O)C[C@@H]1SCCS(=O)(=O)O [CTM-165]
EC (2-fold) (HSF): 26 µM | IC50 (NF-κB): 50 µM | TD100 (dose or concentration at which the compound was 100% toxic to uninfected cells) (uninfected 37RC cells): 50 µM | IC50 (Sendai virus): 1 µM | CC50 at 8 h [1]: > 800 µM | CC50 at 24 h (in vitro): 21 µM

CC(C)(C)OC(=O)N[C@@H](CS[C@H]1CC(=O)C(C)(C)C1OC(=O)C(C)(C)C)C(=O)O (stereo in doubt) [CTM-218, (2R)-2-tert-butoxycarbonylamino-3-[(1S,2R)-2-(2,2-dimethylpropionyloxy)-3,3-dimethyl-4-oxocyclopentylsulfanyl]-propionic acid]
EC (2-fold) (HSF): 15 µM | IC50 (NF-κB): 22 µM

CC(C)(C)[Si](C)(C)O[C@H]1CC(=O)C[C@@H]1Sc1ccncc1 [CTM-132]
EC (2-fold) (HSF): 13 µM | IC50 (NF-κB): 33 µM | TD100 (dose or concentration at which the compound was 100% toxic to uninfected cells) (uninfected 37RC cells): 10 µM | IC50 (Sendai virus): 0.2 µM | CC50 at 8 h [1]: 220 µM | CC50 at 24 h (in vitro): 2.6 µM

CC(C)(C)OC(=O)N[C@@H](CS[C@@H]1CC(=O)C(C)(C)C1OC(=O)C(C)(C)C)C(=O)O (stereo in doubt) [CTM-217, (2R)-2-tert-butoxycarbonylamino-3-[(1R,2S)-2-(2,2-dimethylpropionyloxy)-3,3-dimethyl-4-oxocyclopentylsulfanyl]-propionic acid]
EC (2-fold) (HSF): 10 µM | IC50 (NF-κB): 14 µM

CC(=O)N[C@@H](CS[C@H]1CC(=O)C[C@@H]1O[Si](C)(C)C(C)(C)C)C(=O)O [CTM-115]
TD100 (dose or concentration at which the compound was 100% toxic to uninfected cells) (uninfected 37RC cells): >500 µM | IC50 (Sendai virus): 50 µM | CC50 at 8 h [1]: > 800 µM | CC50 at 24 h (in vitro): 228 µM

COc1ccc(S[C@H]2CC(=O)C[C@@H]2O[Si](C)(C)C(C)(C)C)cc1 [CTM-169]
EC (2-fold) (HSF): 26 µM | IC50 (NF-κB): 38 µM | TD100 (dose or concentration at which the compound was 100% toxic to uninfected cells) (uninfected 37RC cells): 50 µM | IC50 (Sendai virus): 1.5 µM | CC50 at 8 h [1]: > 800 µM | CC50 at 24 h (in vitro): 22 µM

CC(=O)NCCS[C@H]1CC(=O)C[C@@H]1O[Si](C)(C)C(C)(C)C [CTM-83]
EC (2-fold) (HSF): 27 µM | IC50 (NF-κB): 47 µM | TD100 (dose or concentration at which the compound was 100% toxic to uninfected cells) (uninfected 37RC cells): 50 µM | IC50 (Sendai virus): 3 µM | CC50 at 8 h [1]: > 800 µM | CC50 at 24 h (in vitro): 27 µM

COC(=O)c1ccccc1S[C@H]1CC(=O)C[C@@H]1O[Si](C)(C)C(C)(C)C [CTM-82]
EC (2-fold) (HSF): 35 µM | IC50 (NF-κB): 54 µM | TD100 (dose or concentration at which the compound was 100% toxic to uninfected cells) (uninfected 37RC cells): 50 µM | IC50 (Sendai virus): 1 µM | CC50 at 8 h [1]: > 800 µM | CC50 at 24 h (in vitro): 16 µM
